# Measurements published in ChEMBL document CHEMBL1201862, “PubChem BioAssay data set” (2004).
#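 Where inhibition never reached the appropriate level, the endpoint shown equals the highest concentration tested. Otherwise, values were interpolated linearly from a five-concentration, 48-hour dose response in 96-well plates. GI50 is the concentration that inhibits growth by half.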 Activity calls are given as the source filed them. Cut-off read from the data, not from the text of the source: active = GI50 up to about 1.1 µM and inactive = higher.
# Tests used:
# Assay in all cases: growth of human tumour cells (NCI), 48 h
# KM12 = test system: KM12
# MDA-MB-435 = test system: MDA-MB-435
# 786-0 = test system: 786-0
# CAKI-1 = test system: CAKI-1
# SNB-75 = test system: SNB-75
# HT-29 = test system: HT-29
# MOLT-4 = test system: MOLT-4
# HCT-116 = test system: HCT-116
# IGROV-1 = test system: IGROV-1
# HOP-62 = test system: HOP-62
# MDA-MB-231 = test system: MDA-MB-231
# SN12C = test system: SN12C
# MCF7 = test system: MCF7
# NCI-H460 = test system: NCI-H460
# RXF 393 = test system: RXF 393
# SW-620 = test system: SW-620
# COLO 205 = test system: COLO 205
# EKVX = test system: EKVX
# UACC-62 = test system: UACC-62
# SK-MEL-2 = test system: SK-MEL-2
# TK-10 = test system: TK-10
# HCC 2998 = test system: HCC 2998
# HCT-15 = test system: HCT-15
# OVCAR-8 = test system: OVCAR-8
# ACHN = test system: ACHN
# SNB-19 = test system: SNB-19
# Malme-3M = test system: Malme-3M
# CCRF-CEM = test system: CCRF-CEM
# OVCAR-4 = test system: OVCAR-4
# HOP-92 = test system: HOP-92
# SR = test system: SR
# HL-60 = test system: HL-60
# MDA-N = test system: MDA-N
# SK-OV-3 = test system: SK-OV-3
# K562 = test system: K562
# NCI-H23 = test system: NCI-H23
# SF-268 = test system: SF-268
# OVCAR-3 = test system: OVCAR-3
# A498 = test system: A498
# NCI/ADR-RES = test system: NCI/ADR-RES
# SF-539 = test system: SF-539
# NCI-H226 = test system: NCI-H226
# SK-MEL-5 = test system: SK-MEL-5
# RPMI-8226 = test system: RPMI-8226
# UACC-257 = test system: UACC-257
# NCI-H522 = test system: NCI-H522
# SF-295 = test system: SF-295
# BT-549 = test system: BT-549
# Hs-578T = test system: Hs-578T
# DU-145 = test system: DU-145
# OVCAR-5 = test system: OVCAR-5
# T47D = test system: T47D
# PC-3 = test system: PC-3
# U-251 = test system: U-251
# A549 = test system: A549
# SK-MEL-28 = test system: SK-MEL-28
# M14 = test system: M14
# UO-31 = test system: UO-31
# LOX IMVI = test system: LOX IMVI
structure (smiles),measurement,setting,value
CC(CC[C@@H](O)C(C)(C)O)C1[C@@H](O)CC2(C)C3CC(O)C4C(C)(C)[C@@H](OC5OC(CO)C(O)C(O)C5O)CC[C@@]45C[C@@]35CC[C@]12C (stereo partly specified),GI50,KM12,> 10 µM (inactive)
same,GI50,MDA-MB-435,> 10 µM (inactive)
same,GI50,786-0,> 10 µM (inactive)
same,GI50,CAKI-1,> 10 µM (inactive)
same,GI50,SNB-75,> 10 µM (inactive)
same,GI50,HT-29,> 10 µM (inactive)
same,GI50,MOLT-4,> 10 µM (inactive)
same,GI50,HCT-116,> 10 µM (inactive)
same,GI50,IGROV-1,> 10 µM (inactive)
same,GI50,HOP-62,> 10 µM (inactive)
same,GI50,MDA-MB-231,> 10 µM (inactive)
same,GI50,SN12C,> 10 µM (inactive)
same,GI50,MCF7,> 10 µM (inactive)
same,GI50,NCI-H460,> 10 µM (inactive)
same,GI50,RXF 393,> 10 µM (inactive)
same,GI50,SW-620,> 10 µM (inactive)
same,GI50,COLO 205,> 10 µM (inactive)
same,GI50,EKVX,> 10 µM (inactive)
same,GI50,UACC-62,> 10 µM (inactive)
same,GI50,SK-MEL-2,> 10 µM (inactive)
same,GI50,TK-10,> 10 µM (inactive)
same,GI50,HCC 2998,> 10 µM (inactive)
same,GI50,HCT-15,> 10 µM
same,GI50,OVCAR-8,> 10 µM (inactive)
same,GI50,ACHN,> 10 µM (inactive)
same,GI50,SNB-19,> 10 µM (inactive)
same,GI50,Malme-3M,> 10 µM (inactive)
same,GI50,CCRF-CEM,> 10 µM (inactive)
same,GI50,OVCAR-4,> 10 µM (inactive)
same,GI50,HOP-92,> 10 µM (inactive)
same,GI50,SR,> 10 µM (inactive)
same,GI50,HL-60,> 10 µM (inactive)
same,GI50,MDA-N,> 10 µM (inactive)
same,GI50,SK-OV-3,> 10 µM (inactive)
same,GI50,K562,> 10 µM (inactive)
same,GI50,NCI-H23,> 10 µM (inactive)
same,GI50,SF-268,> 10 µM (inactive)
same,GI50,OVCAR-3,> 10 µM (inactive)
same,GI50,A498,> 10 µM (inactive)
same,GI50,NCI/ADR-RES,> 10 µM (inactive)
same,GI50,SF-539,> 10 µM (inactive)
same,GI50,NCI-H226,8.79 µM (inactive)
same,GI50,SK-MEL-5,> 10 µM (inactive)
same,GI50,RPMI-8226,> 10 µM (inactive)
same,GI50,UACC-257,> 10 µM (inactive)
same,GI50,NCI-H522,> 10 µM (inactive)
same,GI50,SF-295,> 10 µM (inactive)
same,GI50,BT-549,> 10 µM (inactive)
same,GI50,Hs-578T,> 10 µM (inactive)
same,GI50,DU-145,> 10 µM (inactive)
same,GI50,OVCAR-5,> 10 µM (inactive)
same,GI50,T47D,> 10 µM (inactive)
same,GI50,PC-3,> 10 µM (inactive)
same,GI50,U-251,> 10 µM (inactive)
same,GI50,A549,> 10 µM (inactive)
same,GI50,SK-MEL-28,> 10 µM (inactive)
same,GI50,M14,> 10 µM (inactive)
O=C(O)Cc1cc(F)ccc1C(=O)O,GI50,UO-31,> 100 µM (inactive)
same,GI50,KM12,> 100 µM (inactive)
same,GI50,MDA-MB-435,> 100 µM (inactive)
same,GI50,786-0,> 100 µM (inactive)
same,GI50,CAKI-1,31 µM (inactive)
same,GI50,SNB-75,80.4 µM (inactive)
same,GI50,HT-29,> 100 µM (inactive)
same,GI50,MOLT-4,> 100 µM (inactive)
same,GI50,HCT-116,> 100 µM (inactive)
same,GI50,IGROV-1,23.6 µM (inactive)
same,GI50,HOP-62,> 100 µM (inactive)
same,GI50,MDA-MB-231,> 100 µM (inactive)
same,GI50,SN12C,> 100 µM (inactive)
same,GI50,MCF7,> 100 µM (inactive)
same,GI50,NCI-H460,> 100 µM (inactive)
same,GI50,RXF 393,58.5 µM (inactive)
same,GI50,SW-620,> 100 µM (inactive)
same,GI50,COLO 205,> 100 µM (inactive)
same,GI50,EKVX,> 100 µM (inactive)
same,GI50,UACC-62,> 100 µM (inactive)
same,GI50,SK-MEL-2,> 100 µM (inactive)
same,GI50,TK-10,> 100 µM (inactive)
same,GI50,HCC 2998,> 100 µM (inactive)
same,GI50,HCT-15,73.5 µM
same,GI50,OVCAR-8,> 100 µM (inactive)
same,GI50,ACHN,> 100 µM (inactive)
same,GI50,SNB-19,> 100 µM (inactive)
same,GI50,CCRF-CEM,> 100 µM (inactive)
same,GI50,HOP-92,> 100 µM (inactive)
same,GI50,SR,77.1 µM (inactive)
same,GI50,HL-60,> 100 µM (inactive)
same,GI50,MDA-N,> 100 µM (inactive)
same,GI50,SK-OV-3,> 100 µM (inactive)
same,GI50,LOX IMVI,> 100 µM (inactive)
same,GI50,K562,> 100 µM (inactive)
same,GI50,NCI-H23,> 100 µM (inactive)
same,GI50,SF-268,> 100 µM (inactive)
same,GI50,OVCAR-3,> 100 µM (inactive)
same,GI50,A498,> 100 µM (inactive)
same,GI50,NCI/ADR-RES,> 100 µM (inactive)
same,GI50,SF-539,> 100 µM (inactive)
same,GI50,SK-MEL-5,> 100 µM (inactive)
same,GI50,RPMI-8226,> 100 µM (inactive)
same,GI50,UACC-257,> 100 µM (inactive)
same,GI50,NCI-H522,92 µM (inactive)
same,GI50,SF-295,> 100 µM (inactive)
same,GI50,BT-549,> 100 µM (inactive)
same,GI50,Hs-578T,> 100 µM (inactive)
same,GI50,DU-145,> 100 µM (inactive)
same,GI50,OVCAR-5,> 100 µM (inactive)
same,GI50,T47D,> 100 µM (inactive)
same,GI50,PC-3,> 100 µM (inactive)
same,GI50,U-251,> 100 µM (inactive)
same,GI50,A549,> 100 µM (inactive)
same,GI50,SK-MEL-28,60.3 µM (inactive)
same,GI50,M14,> 100 µM (inactive)
C=CCSC1=N/C(=C\c2ccco2)C(=O)N1CC=C,GI50,UO-31,53 µM (inactive)
same,GI50,KM12,64.4 µM (inactive)
same,GI50,MDA-MB-435,52.5 µM (inactive)
same,GI50,786-0,> 100 µM (inactive)
same,GI50,CAKI-1,70.6 µM (inactive)
same,GI50,HT-29,68.4 µM (inactive)
same,GI50,MOLT-4,25.9 µM (inactive)
same,GI50,HCT-116,52.1 µM (inactive)
same,GI50,IGROV-1,> 100 µM (inactive)
same,GI50,HOP-62,> 100 µM (inactive)
same,GI50,MDA-MB-231,98.9 µM (inactive)
same,GI50,SN12C,> 100 µM (inactive)
same,GI50,MCF7,16.6 µM (inactive)
same,GI50,NCI-H460,> 100 µM (inactive)
same,GI50,RXF 393,22.5 µM (inactive)
same,GI50,SW-620,> 100 µM (inactive)
same,GI50,COLO 205,83.6 µM (inactive)
same,GI50,EKVX,40.3 µM (inactive)
same,GI50,UACC-62,39.4 µM (inactive)
same,GI50,SK-MEL-2,> 100 µM (inactive)
same,GI50,TK-10,> 100 µM (inactive)
same,GI50,HCC 2998,> 100 µM (inactive)
same,GI50,HCT-15,57.9 µM
same,GI50,OVCAR-8,> 100 µM (inactive)
same,GI50,ACHN,34.1 µM (inactive)
same,GI50,SNB-19,> 100 µM (inactive)
same,GI50,Malme-3M,> 100 µM (inactive)
same,GI50,CCRF-CEM,42.6 µM (inactive)
same,GI50,OVCAR-4,38 µM (inactive)
same,GI50,HOP-92,55.2 µM (inactive)
same,GI50,SR,25.4 µM (inactive)
same,GI50,HL-60,26.8 µM (inactive)
same,GI50,MDA-N,41.8 µM (inactive)
same,GI50,SK-OV-3,> 100 µM (inactive)
same,GI50,LOX IMVI,69.3 µM (inactive)
same,GI50,K562,35.2 µM (inactive)
same,GI50,NCI-H23,66.5 µM (inactive)
same,GI50,SF-268,> 100 µM (inactive)
same,GI50,OVCAR-3,95.3 µM (inactive)
same,GI50,A498,27.2 µM (inactive)
same,GI50,NCI/ADR-RES,85.7 µM (inactive)
same,GI50,SF-539,> 100 µM (inactive)
same,GI50,NCI-H226,34.4 µM (inactive)
same,GI50,SK-MEL-5,37.5 µM (inactive)
same,GI50,RPMI-8226,28.2 µM (inactive)
same,GI50,UACC-257,77.6 µM (inactive)
same,GI50,NCI-H522,43.9 µM (inactive)
same,GI50,SF-295,71.1 µM (inactive)
same,GI50,BT-549,46.1 µM (inactive)
same,GI50,Hs-578T,> 100 µM (inactive)
same,GI50,DU-145,90.4 µM (inactive)
same,GI50,OVCAR-5,> 100 µM (inactive)
same,GI50,T47D,28.2 µM (inactive)
same,GI50,PC-3,46.7 µM (inactive)
same,GI50,U-251,> 100 µM (inactive)
same,GI50,A549,79.1 µM (inactive)
same,GI50,SK-MEL-28,72.4 µM (inactive)
same,GI50,M14,> 100 µM (inactive)
